Legend:
p53 = conditions: stated as known behaviour of HDM2 ligands; cited from earlier work
Huh7 cells = test: cell penetration by fluorescence microscopy, Huh7; type: cell-based, human
Description: (§1) The effect of the sub-micromolar HDM2 binding bis-peptide 1 in cell-culture was thereafter evaluated. The cell-penetrating capability of two of the functionalized bis-peptides was first examined. […] Bis-peptide 1 was then incubated with both Huh7 cells and HepG2 (human liver hepatoblastoma cells) and imaged.

HepG2 cells = type: cell-based, human
Description: as §1

| SMILES | effect on p53 levels (p53) | cellular uptake (Huh7 cells; Huh7, 2 μM, 24 hours, fluorescence and confocal microscopy) | cellular uptake and distribution (HepG2 cells) | cellular uptake and distribution (Huh7 cells) |
| --- | --- | --- | --- | --- |
| COc1ccc(C2=N[C@@H](c3ccc(Cl)cc3)[C@@H](c3ccc(Cl)cc3)N2C(=O)N2CCNC(=O)C2)c(OC(C)C)c1 [nutlin-3a] | increase in p53 levels |  |  |  |
| CC(C)CN1C(=O)[C@@H]2C[C@@]3(CN2C(=O)[C@@]12C[C@H]1C(=O)N(Cc4ccc5ccccc5c4)[C@]4(C[C@H]5C(=O)N[C@@H](Cc6ccccc6)C(=O)N5C4)C(=O)N1C2)NC(=O)[C@H](CCCCNC(=S)Nc1ccc2c(c1)C(=O)OC21c2ccc(O)cc2Oc2cc(O)ccc21)NC3=O [Entry 3] |  | Significant uptake |  |  |
| O=C1OC2(c3ccc(O)cc3Oc3cc(O)ccc32)c2ccccc21 [fluorescein, reference compound] |  |  | no visible uptake of fluorescence | no visible uptake of fluorescence |
| CC(C)CN1C(=O)[C@@H]2C[C@@]3(CN2C(=O)[C@@]12C[C@H]1C(=O)N(Cc4ccc(Cl)c(Cl)c4)[C@]4(C[C@@H]5C(=O)N[C@@H](CCc6ccccc6)C(=O)N5C4)C(=O)N1C2)NC(=O)[C@@H](CCCCNC(=S)Nc1ccc2c(c1)C(=O)OC21c2ccc(O)cc2Oc2cc(O)ccc21)NC3=O [Entry 1] |  |  | distribution of entry 1 throughout the cytoplasm and nucleus | distribution of entry 1 throughout the cytoplasm and nucleus |

Reference: patent US8895739B2, “Acylation of hindered amines and functionalized bis-peptides obtained thereby” (Temple University of the Commonwealth System of Higher …, priority 2008, dated 2014)
